According to patent publication US20230220010A1, “BROAD-SPECTRUM ANTIVIRAL PEPTIDES” (priority 2020, published 2023):
Entries after “also recorded” stand apart in the source; their conditions may differ. Like-named read-outs stand apart in the source and are kept apart here. Square brackets hold non-standard residues; d marks the D form. Ends that are not written are not given here. Peptide text beside a SMILES is read from it.

Tests used:
HEK 293T/17 cells = assay: Cytotoxicity assay, CELLTITER-GLO, HEK cells; details: for cell viability, HEK 293T/17 cells: peptide concentrations approximately below 4 μM, about 72 hours; for cytotoxicity against HEK cells: CELLTITER-GLO, 3 days
HEK cells [1] = assay: Cytotoxicity with varying cell densities, HEK cells; details: 5×10^3 to 1×10^5 cells/well
Vero E6 cells = assay: Cytotoxicity assay, CELLTITER-GLO, Vero E6 cells; details: peptide concentrations at or below 2 μM, about 72 hours
HEK cells [2] = assay: Cytotoxicity with varying serum (FBS) concentrations, HEK cells; details: for effect of serum concentration on cytotoxicity: 0-50% FBS
dengue virus type 2 = details: read-out: EC50 against dengue virus (DENV); plaque assay
[3] = Cytotoxicity assay, ALAMARBLUE, HEK cells
HEK cells [4] = assay: Cytotoxicity assay, ALAMARBLUE, HEK cells; details: HEK cells with or without LASVpv, ALAMARBLUE
[5] = tested on: Lassa pseudovirus (LASVpv); details: 72 h
H3N2 influenza virus = details: influenza virus
human adenovirus 5 = details: read-out: EC50 against adenovirus (AdV); plaque assay
[6] = tested on: herpes simplex virus type 1; details: read-out: EC50 against herpes simplex virus (HSV); plaque assay
[7] = tested on: Lassa pseudovirus (LASVpv); details: 1 h

Compound	cell viability, HEK 293T/17 cells (HEK 293T/17 cells)	effect of cell density on cytotoxicity (HEK cells [1])	cell viability, Vero E6 cells (Vero E6 cells)	EC50 [3] [nM]	cell viability in the presence and absence of virus (HEK cells [4])	EC50 [5] [nM]	EC50 (H3N2 influenza virus) [nM]	further results
CC(C)C[C@@H](NC(=O)[C@@H](Cc1c[nH]c2ccccc12)NC(=O)CNC(=O)[C@@H](CCCNC(=N)N)NC(=O)[C@H](N)CCCNC(=N)N)C(=O)N[C@H](CC(C)C)C(=O)N[C@H](CC(C)C)C(=O)N[C@H](CCCNC(=N)N)C(=O)N[C@H](CC(C)C)C(=O)N[C@H](CC(C)C)C(=O)N[C@H](CCCNC(=N)N)C(=O)N[C@H](CC(C)C)C(=O)N[C@H](CC(C)C)C(=O)N[C@H](CC(C)C)C(=O)N[C@H](CCCNC(=N)N)C(=O)N[C@H](CC(C)C)C(=O)N[C@H](CC(C)C)C(=O)N[C@H](Cc1c[nH]c2ccccc12)C(=O)NCC(=O)N[C@H](CCCNC(=N)N)C(=O)N[C@H](CCCNC(=N)N)C(N)=O [D-AHR, rrgwlllrllrlllrllwgrr] (H-[dR][dR]G[dW][dL][dL][dL][dR][dL][dL][dR][dL][dL][dL][dR][dL][dL][dW]G[dR][dR]-NH2)	high cell viability	–	–	–	–	–	–	–
CC(C)C[C@@H](NC(=O)[C@@H](C)NC(=O)[C@@H](CC(C)C)NC(=O)[C@@H](CCCCN)NC(=O)[C@@H](CC(C)C)NC(=O)[C@@H](CO)NC(=O)[C@@H](Cc1ccccc1)NC(=O)CNC(=O)[C@@H](CCCNC(=N)N)NC(=O)[C@H](N)CCCNC(=N)N)C(=O)N[C@H](CC(C)C)C(=O)N[C@H](CCCCN)C(=O)N[C@H](CC(=O)O)C(=O)NCC(=O)N[C@H](Cc1c[nH]c2ccccc12)C(=O)N[C@H](CC(C)C)C(=O)N[C@H](CC(C)C)C(=O)N[C@H](CC(C)C)C(=O)N[C@H](CCCNC(=N)N)C(=O)N[C@H](CC(C)C)C(=O)NCC(=O)N[C@H](Cc1ccc(O)cc1)C(=O)NCC(=O)N[C@H](CCCNC(=N)N)C(=O)N[C@H](CCCNC(=N)N)C(N)=O [D-IT1b, rrgfslklallkdgwlllrlgygrr] (H-[dR][dR]G[dF][dS][dL][dK][dL][dA][dL][dL][dK][dD]G[dW][dL][dL][dL][dR][dL]G[dY]G[dR][dR]-NH2)	high cell viability	–	–	–	–	–	–	–
CC(C)C[C@@H](NC(=O)[C@@H](Cc1c[nH]c2ccccc12)NC(=O)CNC(=O)[C@@H](CCCNC(=N)N)NC(=O)[C@H](N)CCCNC(=N)N)C(=O)N[C@H](CC(C)C)C(=O)N[C@H](CC(C)C)C(=O)N[C@H](CCCNC(=N)N)C(=O)N[C@H](CC(C)C)C(=O)N[C@H](CC(C)C)C(=O)N[C@H](CC(C)C)C(=O)N[C@H](Cc1c[nH]c2ccccc12)C(=O)NCC(=O)N[C@H](CCCNC(=N)N)C(=O)N[C@H](CCCNC(=N)N)C(N)=O [D-TL3, rrgwlllrlllwgrr] (H-[dR][dR]G[dW][dL][dL][dL][dR][dL][dL][dL][dW]G[dR][dR]-NH2)	high cell viability	–	–	–	–	–	–	–
CC(C)C[C@@H](NC(=O)[C@@H](Cc1c[nH]c2ccccc12)NC(=O)[C@@H](CCCNC(=N)N)NC(=O)[C@H](N)CCCNC(=N)N)C(=O)N[C@H](CC(C)C)C(=O)N[C@H](CC(C)C)C(=O)N[C@H](CC(C)C)C(=O)N[C@H](CC(N)=O)C(=O)N[C@H](CC(C)C)C(=O)N[C@H](CC(C)C)C(=O)N[C@H](CC(C)C)C(=O)N[C@H](CC(C)C)C(=O)N[C@H](Cc1c[nH]c2ccccc12)C(=O)N[C@H](CCCNC(=N)N)C(=O)N[C@H](CCCNC(=N)N)C(N)=O [D-TL4NdG, rrwllllnllllwrr] (H-[dR][dR][dW][dL][dL][dL][dL][dN][dL][dL][dL][dL][dW][dR][dR]-NH2)	high cell viability	–	–	–	–	–	–	–
RRGFSLKLALLKDGWLLLRLGYGRR-NH2 [IT1-b]	–	remained consistent as cell density increases	High cell viability	> 75000	varies in the presence and absence of virus	1400	2300	effect of serum concentration on cytotoxicity (HEK cells [2]): far less cytotoxic as serum concentration increases; EC50 (dengue virus type 2): 225 nM
RRGFSLKLLLSYRGWALLRLGYGRR-NH2 [IT1-a]	–	–	–	19000	varies in the presence and absence of virus	1600	1600	–
RRGWALRLNLYYGRR-NH2 [*ARNY*, RRGWALRLNLYYGRR]	–	–	–	> 100000	no difference	2200	4500	–
RRGWLLLLNLLLLWGRR-NH2 [TL4N, RRGWLLLLNLLLLWGRR]	–	–	–	–	–	–	–	CC50 compared to IT1b (HEK 293T/17 cells; % greater than that of IT1b, HEK cells): over 500%; cytotoxicity against HEK cells (HEK 293T/17 cells): much less cytotoxic than TL3
RRGWLLLRLLLWGRR-NH2 [TL3, RRGWLLLRLLLWGRR]	–	increases as cell density increases	High cell viability	–	–	–	–	cytotoxicity in 0% FBS (HEK cells [2]): does display cytotoxicity; cytotoxicity in 10%, 25%, and 50% FBS (HEK cells [2]): completely noncytotoxic
RRGWLLLRLLRLLLRLLWGRR-NH2 [AHR]	–	increases as cell density increases	High cell viability	–	–	–	–	EC50 (human adenovirus 5): 1100 nM; effect of serum concentration on cytotoxicity (HEK cells [2]): cytotoxic in all serum concentrations at high peptide concentrations; EC50 (dengue virus type 2): 310 nM; EC50 [6]: 157 nM; EC50 [7]: < 10000 nM; inhibition of LASVpv at 50 μM peptide [7]: approximately 100%
RRGWNLALTLTYGRR-NH2 [*NATT*, RRGWNLALTLTYGRR]	–	–	–	43000	no difference	1200	700	–
RRWLLLLNLLLLWRR-NH2 [TL4NdG, RRWLLLLNLLLLWRR]	–	remained consistent as cell density increases	High cell viability	–	–	–	–	EC50 (human adenovirus 5): > 10000 nM; effect of serum concentration on cytotoxicity (HEK cells [2]): essentially unchanged by serum concentration; cytotoxicity against HEK cells (HEK 293T/17 cells): least cytotoxic test peptide; also recorded: much less cytotoxic than TL3; also recorded: least cytotoxic peptide tested; inhibition of LASVpv at 50 μM peptide [7]: greater than 50%
RRWLLLLRLLLLWRR-NH2 [TL4dG, RRWLLLLRLLLLWRR]	–	–	–	–	–	–	–	cytotoxicity against HEK cells (HEK 293T/17 cells): less cytotoxic than TL3
